We go through 11 molecules from patent EP4559898A1, “NOVEL IONIZABLE CATIONIC LIPIDS CONTAINING THIOETHER LINKAGE” (AldexChem Kft., priority 2023, dated 2025).

A short description of data set [1]: Size, PDI and Zeta potential of LNPs by dynamic light scattering. To be noted: LNP formulated with tested lipid, diluted in 1x PBS pH 7.4; for Size: DOTAP, DOPE, Resveratrol, DSPE-PEG and mRNA, dialyzed; for Size / PDI: DLS. Type of data set: physicochemical. The protocol: • 1. If needed, prepare stock solutions by solving known amounts of lipid powder into an appropriate solvent. The recommended solvent is ethanol and the recommended concentration is typically in the range 10-50 mM. Higher concentrations are preferred to allow flexibility on mRNA-LNP concentration. • 2. Remove the lipid stock solutions from the -20°C freezer. For long-term storage, -80°C is used. • 3. Check the vials for precipitation, DOPE (CAS# 4004-05-1) (20 mM) and DSPE-PEG (CAS# 474922-26-4) (5mM) may need a 5-30 minute incubation step at 37°C with intermittent vortexing to resuspend all contents. […] As a last resort, lipids may be heated to 50°C to resuspend, time should be kept as short as possible to prevent oxidation or other modifying or degradative processes. • 4. Mix the lipids by vortexing for 2 minutes. • 5. […] Cooling the solution prevent excessive evaporation of ethanol or similar solvents upon opening. • 6. Meanwhile, thaw the RNA samples, including the latest SecNLuc control, by inserting the frozen tube in a room temperature aluminium block. • 7. Prepare for each LNP-formulation with identical mRNA component, an RNA master mix according to Table 1 below in a fresh tube. Use of a master mix allows more precise comparison of lipid formulations relative to each other. Split the master mix over a number of fresh tubes equal to the number of samples + controls. Each tube contains 375 µl of mRNA in 10 mM Citrate pH 4.0. • 8. Prepare for each LNP formulation with identical lipid composition a Lipid master mix according to Table 1 below in a fresh tube, exclude the lipid of interest. Use of a master mix allows more precise comparison of the novel ionizable lipid relative to each other. Split the master mix over a number of fresh tubes equal to the number of samples + controls. Each tube contains 65.5 µl of lipid master mix. • 9. Add the ionizable lipid of interest to the equally divide lipid master mix. Mix well by pipetting up and down. Label the tube according to the ionizable lipid used. • 10. Power on the L1 FM (L1 Formulation Machine uses 2 high-speed syringe pumps to mix lipids in organic solvents with mRNA in acidic aqeuous solution to generate well-defined LNPs. The microfluidic mixing chip involves a dean-type structure performing the high-efficiency mixing at a total flow rate (TFR) of around 12ml/min at a 3:1 mixing ratio) and allow it to do a calibration of motor positions. Table 1: Lipid formulation solution
• 18. Fill a fresh syringe (C) through a blunt 18G stainless steel needle with the previously prepared RNA mixture of step 6. The volume should be approximately 85% of total formulation volume + 25 µl (dead-volume). Make sure to remove all air bubbles by tapping. • 19. Fill a fresh syringe (D) through a blunt 18G stainless steel needle with the Lipid master mix. The volume should be approximately […] of total formulation volume + 25 µl (dead-volume). Again, Make sure to remove all bubbles. • 20. Attach the syringes in the correct orientation, […] • 21. Load the 'Receiving station' with appropriate sized collection containers (2 ml Eppendorf tubes). • 22. Press the microfluidic chip to the back of the machine with your thumb and hold, press the 'Button 1' (40 µg). The L1 FM pushes the total volume from the syringes in a perfect 3:1 (mRNA aqueous: lipid in EtOH) ratio through the microfluidic mixer chip with a total flow-rate of […] (Total flow rate (TFR)). • 23. Remove the sample tube from the 'Receiving station' and label the tube accordingly. • 24. Reset the machine to prepare with the next formulation.
• 25. Transfer the individual formulations to 100 kda MWCO, SpectraPor Biotech dialysis tubing, and close with designated clamps. • 26. Submerge the dialysis bags in beakers filled with 1x Phosphate-buffered saline (PBS buffer, pH 7.4, Gibco cat# 202212-019), stir at 230 RPM at room temperature. • 27. […]

A short description of data set [2]: Cell viability assessment with Resazurin assay. It is filed as cell-based. To be noted: human, hela cells, average over all doses, percent of OptiMEM-only control, read-out: Cell Viability % (Average metabolic rate over all doses, Resazurin). From the text: This protocol is used to determine the metabolic activity of cells as a measure for cell viability after exposure to potentially toxic substances. Resazurin is converted in mitochondria by reduction to resorufin, which has a much higher fluorescence at ~600 nm compared to unconverted resazurin. A lower amount/percentage of conversion is correlated with reduced cellular metabolism and indirectly to cellular death and toxicity. Care must be taken with interpretation of the read-out, as 50% reduction in resazurin conversion may mean 50% reduction of cellular metabolism of 100% alive cells, or 50% of cells dead, and any combination in between.
• 1. Prepare 0.25 mg/ml stock solution resazurin in fresh cell culture medium. Resazurin is auto-reducing over time in solution, especially in medium, and fresh stocks should be prepared every 2-3 days. Stocks should be stored at 4°C and protected from light. For HeLa cells, DMEM/F12 with 10% FCS is used. • 2. Dilute stock solution 10x in fresh cell culture medium to 0.025 mg/ml -> ready for application on cells. For HeLa cells, DMEM/F12 with 10% FCS is used. • 3. Collect 96-well plate and replace cell-culture spent medium with 100 µl per well resazurin solution. Add some resazurin solution for background measurement in wells not containing cells. • 4. Incubate for 50 minutes in incubator at 37°C, 5% CO2, 95% RH. • 5. Transfer resazurin solution to a fresh 96- or 384-well plate. • 6. Measure in plate reader using 540/25 nm (excitation) and 610/40 nm (emission) using standard settings (PTM low/OD-1.0). • 7. Subtract the average background measurement from all samples. Set the average of the negative controls (well receiving OptiMEM only during transfection) to 100% and express all values as percentage of the control activity. Typically, at lower levels of treatment, elevation of metabolic activity is shown, whereas for toxic substances, at toxic concentrations sigmoidal curves can be obtained, with lower activity indicating higher toxicity.

With `CCCCCCCCC(CCCCCC)C(=O)OCCCCCCN(CCCCO)CCCCCCOC(=O)C(CCCCCC)CCCCCCCC` (centres unmarked) [ALC-0315 ref., reference compound], in data set [1], the Size is recorded as 131,9 nm, the Zeta potential was -12,32 mV and the PDI was 0,007. Besides, the viability at 24 h in data set [2] worked out at 96%.

As to `CCCCCCCCCCSC(CCCC)C(=O)OCCCCCCN(CCCCO)CCCCCCOC(=O)C(CCCC)SCCCCCCCCCC` (centres unmarked) [Example 1, ((4-hydroxybutyl)azanediyl)bis(hexane-6,1-diyl) bis(2-(decylthio)hexanoate)], in data set [1], the Size is 226,7 nm, the Zeta potential was -10,74 mV and the PDI is 0,223. Further, the viability at 24 h in data set [2] is 90%.

Turning to `CCCCCCCCC(SCCCCC)C(=O)OCCCCCCN(CCCCO)CCCCCCOC(=O)C(CCCCCCCC)SCCCCC` (centres unmarked) [Example 2, ((4-hydroxybutyl)azanediyl)bis(hexane-6,1-diyl) bis(2-(pentylthio)decanoate)], in data set [1], the Size is 188,2 nm, the Zeta potential is on record as -11,48 mV and the PDI was 0,136. Also, the viability at 24 h in data set [2] amounted to 94%.

Consider `CCCCCCCCCCSC(CCCC)C(=O)OCCCCCCCCN(CCCCO)CCCCCCCCOC(=O)C(CCCC)SCCCCCCCCCC` (centres unmarked) [Example 3, ((4-hydroxybutyl)azanediyl)bis(octane-8,1-diyl) bis(2-(decylthio)hexanoate)], for which, in data set [1], the Size is reported as 185,7 nm, the Zeta potential is reported as -9,667 mV and the PDI is reported as 0,122. Further, the viability at 24 h in data set [2] is 103%.

Regarding `CCCCCCCCCCSC(CCCC)C(=O)OCCCCCCN(CCO)CCCCCCOC(=O)C(CCCC)SCCCCCCCCCC` (centres unmarked) [Example 4, ((2-hydroxyethyl)azanediyl)bis(hexane-6,1-diyl) bis(2-(decylthio)hexanoate)], in data set [1], the Size was 149,7 nm, the Zeta potential is -12,66 mV and the PDI is given as 0,071. Also, the viability at 24 h in data set [2] turned out to be 98%.

On to `CCCCCCCCCCSC(CCCC)C(=O)OCCCCCCN(CCCCCCOC(=O)C(CCCC)SCCCCCCCCCC)CCC1CCCN1C` (centres unmarked) [Example 5, ((2-(1-methylpyrrolidin-2-yl)ethyl)azanediyl)bis(hexane-6,1-diyl) bis(2-(decylthio)hexanoate)], for which, in data set [1], the Size is on record as 291,8 nm, the Zeta potential was -9,117 mV and the PDI was 0,169. The viability at 24 h in data set [2] was 97%.

Turning to `CCCCCCCCC(SCCCCCCC)C(=O)OCCCCCCN(CCCCO)CCCCCCOC(=O)C(CCCCCCCC)SCCCCCCC` (centres unmarked) [Example 6, ((4-hydroxybutyl)azanediyl)bis(hexane-6,1-diyl) bis(2-(heptylthio)decanoate)], in data set [1], the Size is 126,0 nm, the Zeta potential is -11,48 mV and the PDI is recorded as 0,013. The viability at 24 h in data set [2] is 101%.

For `CCCCCCCCCCSC(CCCCCCCC)C(=O)OCCCCCCN(CCCCO)CCCCCCOC(=O)C(CCCCCCCC)SCCCCCCCCCC` (centres unmarked) [Example 7, ((4-hydroxybutyl)azanediyl)bis(hexane-6,1-diyl) bis(2-(decylthio)decanoate)], in data set [1], the Size is 152,7 nm, the Zeta potential is listed as -15,85 mV and the PDI was 0,022. Further, the viability at 24 h in data set [2] came out at 106%.

Take `CCCCCCCCCCSC(CCCCCC)C(=O)OCCCCCCN(CCCCO)CCCCCCOC(=O)C(CCCCCC)SCCCCCCCCCC` (centres unmarked) [Example 8, ((4-hydroxybutyl)azanediyl)bis(hexane-6,1-diyl) bis(2-(decylthio)octanoate)]: in data set [1], the Size is 153,5 nm, the Zeta potential is reported as -14,32 mV and the PDI is on record as 0,038. The viability at 24 h in data set [2] is 104%.

As for `CCCCCCCSC(CCCCCC)C(=O)OCCCCCCN(CCCCO)CCCCCCOC(=O)C(CCCCCC)SCCCCCCC` (centres unmarked) [Example 9, ((4-hydroxybutyl)azanediyl)bis(hexane-6,1-diyl) bis(2-(heptylthio)octanoate)], in data set [1], the Size was 167,3 nm, the Zeta potential is -13,37 mV and the PDI is listed as 0,144. In addition, the viability at 24 h in data set [2] is 106%.

Regarding `CCCCCCCCCCCCCCSCC(=O)OCCCCCCN(CCCCO)CCCCCCOC(=O)CSCCCCCCCCCCCCCC` [Example 10, ((4-hydroxybutyl)azanediyl)bis(hexane-6,1-diyl) bis(2-(tetradecylthio)acetate)], in data set [1], the Size is 203,9 nm, the Zeta potential is recorded as -9,983 mV and the PDI is recorded as 0,014. Further, the viability at 24 h in data set [2] was 99%.

For orientation: viability means a read-out of living cells in per cent, often relative to untreated cells.
